{"source": "patent US20250221968A1", "about": "“TREATMENTS AND METHODS FOR INCREASING DOPAMINE” (Oxford University Innovation Limited, priority 2022, published 2025)", "key": {"[1]": {"target": "T1, D2 receptors (Mus musculus, UniProt P61168)", "T1 construct": "striatal slices from ChAT-Cre: Ai32 mice; from tissue; host or cells: acute striatal slices (DLS) of ChAT-Cre:Ai32 mice", "T1 sequence (P61168 whole entry)": "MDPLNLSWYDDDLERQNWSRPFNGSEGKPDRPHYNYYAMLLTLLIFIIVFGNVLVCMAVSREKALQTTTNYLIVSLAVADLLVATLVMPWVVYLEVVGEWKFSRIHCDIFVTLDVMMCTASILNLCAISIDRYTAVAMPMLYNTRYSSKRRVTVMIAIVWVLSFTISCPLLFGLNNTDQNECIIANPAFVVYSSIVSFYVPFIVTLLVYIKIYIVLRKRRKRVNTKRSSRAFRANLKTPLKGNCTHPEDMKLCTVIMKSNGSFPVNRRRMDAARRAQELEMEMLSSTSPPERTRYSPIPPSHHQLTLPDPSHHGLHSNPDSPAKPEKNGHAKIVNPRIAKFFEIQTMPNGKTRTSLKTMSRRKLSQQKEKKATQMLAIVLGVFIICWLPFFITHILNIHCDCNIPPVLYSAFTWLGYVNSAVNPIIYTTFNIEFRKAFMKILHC", "assay": "Ex vivo slice voltammetry: DA release after light activation of ChIs, 1p vs 3p Estim, ChAT-Cre:Ai32 slices, D2 antagonism", "format": "cell-based", "conditions": "DLS, L-741,626 1 μM", "text": "(§1) Stimulations were timed to avoid FCV scans."}, "[2]": {"tested_on": "nAChRs", "assay": "Conditioned place preference testing after bilateral dorsal striatal infusion", "format": "in vivo, mouse", "conditions": "freely moving mice, 10 μg/side bilateral dorsal striatum, two days of conditioning", "text": "Cannulae Placements: Male C57BL/6N mice (42-50 days) were anesthetised with isoflurane (5% induction; 1.5-2% maintenance) and placed on a stereotaxic frame for surgery. Bilateral injection needles (O.D. 0.21 mm, I.D. 0.11 mm, RWD, China) with the guide cannula (O.D. 0.41 mm, I.D. 0.25 mm, RWD, China) were implanted to the dorsal striatum either vertically or at a small angle from the vertical, with the tip of each cannula aimed at coordinates: AP+1.0 mm; ML+/−1.6 mm to bregma; DV-2.4 mm (from dura). Mice recovered for three days after surgery.\nConditioned Place Preference Testing: In CPP experiments, mice were placed in a 40 cm×40 cm transparent plexiglass arena which was divided into two equal chambers separated by doorway. The chambers were decorated with either horizontal or vertical stripes. The movement of animals was recorded and analysed with Smart V3.0 tracking software (Panlab, Spain).\nOn day 1, mice were allowed to freely shuttle between two chambers to assess place preference at baseline, expressed as % time spent in right chamber. […] On day 4, the post-conditioning chamber preference was calculated as the % of time spent in the right mecamylamine-associated chamber compared to on pre-conditioning day 1. […]"}, "[3]": {"tested_on": "nAChRs", "assay": "6-OHDA lesioning and cylinder test (single paw reaching), mouse model of PD", "format": "in vivo", "conditions": "unilateral 6-OHDA lesioned mice, 10 μg into lesioned striatum, 10 min after injection", "procedure": "6-OHDA Lesioning and Reaching Task: On the lesioning day, 6-hydroxydopamine was injected into the right dorsolateral striatum through the pre-implanted cannula (1 μl of a 0.9% saline solution containing 4 μg/μL 6-OHDA (Sigma-Aldrich) and 0.02% acetic acid) over 5 min. On the testing day, mecamylamine (10 μg/side) was injected via the cannula in a volume of 0.5 μl over 1 min into the lesioned (right) striatum. Animals were sacrificed immediately after behavioural testing. The 6-OHDA-induced loss of dopamine axons was confirmed by the ˜50% decrease of fluorescence intensity of TH staining in slices compared to the contralateral DLS which was measured with ImageJ (1.52p). The anterior commissure used as 0% background fluorescence. Animals were briefly sedated with isoflurane during the injection of 6-OHDA and mecamylamine.\nA cylinder test was performed before and 10 min after 6-OHDA injection to confirm an acute effect of 6-OHDA. After one day of […], the test was performed again before and 10 min after mecamylamine injection. No habituation of the mice to the cylinder was conducted. During the test, mice were individually placed into a glass cylinder (diameter 19 cm, height 25 cm). […] Only wall touches with a single paw, ipsilateral or contralateral forelimb, were counted in the analysis. Data are contralateral touches expressed as a percentage of total number of single-paw touches. […]"}, "[4]": {"tested_on": "nAChRs", "assay": "Anesthetised in vivo voltammetry in DLS", "design": "species or system mouse", "conditions": "urethane-anesthetised wild-type mice, mecamylamine 2 mg/kg i.p. per FIG. 4 legend", "procedure": "Wild type mice were anesthetised with urethane (1.4-1.9 g/kg, i.p.; Biolab), supplemented with additional urethane (0.2 g/kg) every 1-2 hr as required. All wounds and pressure points were infiltrated with bupivacaine (0.5%). Upon reaching surgical anaesthesia, the head was fixed in a stereotaxic frame (Kopf, USA). Core temperature was maintained at 35-36° C. using a homeothermic blanket and monitored via a rectal probe (TR-100, Fine Science Tools). A round piece of skull overlying the left hemisphere was removed to target the DLS (AP+1.0 mm, ML 1.6 mm, DV 2.2 mm to Bregma). A stimulating and recording array consisting of a carbon-fiber microelectrode and a bipolar stimulating electrode (MS303/3-A/SPC, P1 Technology) was positioned in the DLS. The Ag/AgCl reference electrode was implanted in another part of the forebrain. […] The location of the tip of FCV electrode was confirmed histologically.\nFor striatal electrical stimulation, 0.65 mA current (200 μs) was delivered through a bipolar stimulating electrode (0.005 inch, MS303/3-A/SPC, P1 Technologies). The stimulating electrode tips were separated by ˜500 μm and were glued to the FCV recording electrode to fix the tip of the FCV electrode between the two stimulating poles. […]"}, "[5]": {"tested_on": "muscarinic receptors", "conditions": "DLS, atropine 2 μM", "protocol": "For fast-scan cyclic voltammetry (FCV) in acute coronal slices, animals were anaesthetised with isoflurane. Brains were quickly removed into ice-cold, high Mg^2+ cutting solution containing in mM: 85 NaCl, 25 NaHCO3, 2.5 KCl, 1.25 NaH2PO4, 0.5 CaCl2, 7 MgCl2, 10 glucose, 65 sucrose. Brains were then blocked, and 300 μm coronal slices were cut on a vibratome (Leica VT1200S) between +1.5 to +0.5 mm from bregma containing caudate-putamen and nucleus accumbens. Slices recovered at 32° C. for 30-40 min after dissection and were subsequently kept at room temperature. Slices were maintained and recorded in artificial cerebrospinal fluid (aCSF) containing in mM: 130 NaCl, 25 NaHCO3, 2.5 KCl, 1.25 NaH2PO4, 2.5 CaCl2), 2 MgCl2, 10 glucose. The aCSF was saturated with 95% O2/5% CO2; recordings were made at 32-33° C. Extracellular DA concentration ([DA]o) was measured using FCV with 7 μm-diameter carbon fiber microelectrodes (CFMs; tip length 50-100 μm) and a Millar voltammeter (Julian Millar, Barts and the London School of Medicine and Dentistry) as previously^55. […]\nThe Inventors tested whether the DA release dynamics at the timepoints of ChI rebound activity are consistent with nAChR desensitisation. […] As a potential readout of the timecourse of nAChR desensitisation, the Inventors explored how the difference in [DA]o evoked by triplet versus single pulses (100 Hz) varied over time. […]"}, "[6]": {"tested_on": "nAChRs", "assay": "Ex vivo slice voltammetry (FCV): [DA]o evoked by light pulse after prior electrical stimulus, striatal slices from DAT-Cre mice", "format": "cell-based, mouse", "conditions": "DHβE 1 μM", "text": "as §1\nThe Inventors also explored whether prior ChI activation limits subsequent DA release when driven by targeted optogenetic activation of DA axons (DADA). The Inventors used an electrical stimulus to initially drive DA release (DADA+DAChI) and then assessed DADA driven by a subsequent light activation of ChR2-expressing DA axons in ex vivo striatal slices from DAT-Cre mice (FIG. 2a,b). […] For inter-stimulus intervals <100 ms (DLS) or <50 ms (NAcc), this depression was relieved when a nAChR antagonist was present (DHβE, 1 μM)."}, "[7]": {"tested_on": "nAChRs", "assay": "Calcium imaging of GCaMP6f in DA axons in DLS, ex vivo slices of DAT-Cre:Ai95D mice", "format": "cell-based, mouse", "conditions": "DHβE 1 μM", "procedure": "As in a previous study^21, an Olympus BX51WI microscope equipped with a OptoLED Lite system (CAIRN Research), Prime Scientific CMOS (sCMOS) Camera (Teledyne Photometrics), and a ×40/0.8 NA water-objective (Olympus UK) was used for wide-field fluorescence imaging of GCaMP6f in dopaminergic axons in DLS in ex vivo slices in response to single and trains (4 pulses, 100 Hz) of electrical stimulus pulses. Images were acquired at 16.6 Hz frame rate every 2.5 min using Micro-Manager 1.4, with stimulation and recording synchronised using custom-written procedures in Igor Pro 6 (WaveMetrics) and an ITC-18 A/D board (Instrutech). Image files were analysed with Matlab R2019b and Fiji 1.5. The inventors extracted fluorescence intensity from the region of interest (ROI) and from an equal background area where there was no GCaMP6f expression (on the stimulating electrode). After background subtraction, the Ca^2+ transients were bleach-corrected by fitting an exponential curve function through both the baseline (2 s prior to stimulation) and the last 1 s in a 7.2 s recording window. The order of single and train stimulations was alternated and equally distributed and data were collected in duplicate before and after a change in extracellular experimental condition. Data are expressed as ΔF/F where F is the fitted curve. […]"}}, "note": "Entries after “also recorded” stand apart in the source; their conditions may differ."}
{"smiles": "OC1(c2ccc(Cl)cc2)CCN(Cc2c[nH]c3ccccc23)CC1", "note": "[L-741,626]", "values": [{"measurement": "dynamic DA release response after light activation of ChIs (100-400 ms interval)", "setting": "[1]", "result": "persists"}]}
{"smiles": "CNC1(C)C2CCC(C2)C1(C)C", "note": "(centres unmarked) [mecamylamine]", "values": [{"measurement": "conditioned-place preference for the drug-conditioned chamber", "setting": "[2]", "result": "developed a conditioned-place preference"}, {"measurement": "motor deficits: contralateral forelimb single-paw touching in cylinder test", "setting": "[3]", "result": "reduces deficits; also recorded: remediated these motor deficits"}, {"measurement": "[DA]o evoked by local striatal stimulation with brief electrical pulse trains", "setting": "[4]", "result": "significantly increased"}]}
{"smiles": "CN1[C@@H]2CC[C@H]1C[C@@H](OC(=O)C(CO)c1ccccc1)C2", "note": "(some centres unmarked) [atropine]", "values": [{"measurement": "dynamic DA release response after light activation of ChIs (100-400 ms interval)", "setting": "[5]", "result": "persists"}]}
{"smiles": "CO[C@H]1CC=C2CCN3CCC4=C(CC(=O)OC4)[C@]23C1", "note": "[DHβE, Dihydro-β-erythroidine]", "values": [{"measurement": "depression of [DA]o evoked by a subsequent light pulse after an electrical stimulus", "setting": "[6]; DLS, inter-stimulus intervals <100 ms", "result": "relieved"}, {"measurement": "depression of [DA]o evoked by a subsequent light pulse after an electrical stimulus", "setting": "[6]; NAcc, inter-stimulus intervals <50 ms", "result": "relieved"}, {"measurement": "axonal GCaMP6f fluorescence for a 4-pulse train (100 Hz) compared to a single pulse", "setting": "[7]", "result": "markedly greater"}]}
